Results on seven molecules are retold here after ChEMBL document CHEMBL3864156, “Inhibition of plasma lipid oxidation induced by peroxyl radicals, peroxynitrite, hypochlorite, 15-lipoxygenase, and singlet oxygen by clinical drugs” (Bioorg Med Chem Lett, 2016).

The species entered for series [1] is Mus musculus. Put plainly: Antioxidant activity in 10% C57BL/6J mouse plasma assessed as inhibition of AAPH-derived peroxyl radicals-induced pyranine consumption at 50 uM. The class given is functional, cell-free.
Series [2] can be described thus: Antioxidant activity assessed as inhibition of Meo-AMVN-derived peroxyl radicals-induced fucoxanthin consumption at 50 uM. Type of series: functional.
The nature of series [3]: 1-octanol-water partition coefficient, log P of the compound. The class given is physicochemical.
For series [4], the species on record is Mus musculus. Put plainly: Antioxidant activity in 10% C57BL/6J mouse plasma assessed as inhibition of NaOCl-induced lipid oxidation at 30 uM by DPPP-based fluorescence assay. Type of series: functional, cell-free.
The nature of series [5]: Plasma concentration in paediatric patients with congestive heart failure. The class given is ADME. To be noted: human.
Series [6] in a line: Plasma concentration in Sprague-Dawley rat at 1 mg/kg bolus dose with continuous infusion of 1 mg/kg per hour measured for 24 hrs. The class given is ADME, organism-based. The settings on record: iv.
For series [7], the species on record is Mus musculus. Put plainly: Antioxidant activity in 10% C57BL/6J mouse plasma assessed as inhibition of NaOCl-induced lipid oxidation by DPPP-based fluorescence assay. The class given is functional, cell-free.
Series [8] concerns the target T1, Polyunsaturated fatty acid lipoxygenase ALOX15 (Mus musculus) (UniProt P39654).
T1 sequence (whole entry): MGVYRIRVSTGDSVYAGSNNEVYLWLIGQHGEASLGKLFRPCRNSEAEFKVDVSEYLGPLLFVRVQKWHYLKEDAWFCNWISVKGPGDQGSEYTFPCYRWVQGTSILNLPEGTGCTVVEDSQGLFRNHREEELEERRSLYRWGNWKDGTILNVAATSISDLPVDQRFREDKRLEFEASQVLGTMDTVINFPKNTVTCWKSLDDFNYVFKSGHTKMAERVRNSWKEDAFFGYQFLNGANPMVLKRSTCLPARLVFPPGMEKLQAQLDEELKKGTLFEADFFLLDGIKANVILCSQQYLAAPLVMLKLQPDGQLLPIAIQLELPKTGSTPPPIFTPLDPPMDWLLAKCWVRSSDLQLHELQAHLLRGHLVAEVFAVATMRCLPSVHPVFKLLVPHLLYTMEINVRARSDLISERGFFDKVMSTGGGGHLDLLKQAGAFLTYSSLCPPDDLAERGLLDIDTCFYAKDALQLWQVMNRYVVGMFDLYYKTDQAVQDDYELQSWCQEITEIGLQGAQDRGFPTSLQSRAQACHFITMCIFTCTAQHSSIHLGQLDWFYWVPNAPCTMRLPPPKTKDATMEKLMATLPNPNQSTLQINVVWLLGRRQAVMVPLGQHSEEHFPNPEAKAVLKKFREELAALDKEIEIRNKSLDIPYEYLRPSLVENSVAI
The series can be described thus: (§1) Inhibition of 15-LOX-mediated lipid oxidation in 10% C57BL/6J mouse plasma. The class given is cell-free.

Series [9] has as its target T2, Polyunsaturated fatty acid lipoxygenase ALOX15 (Mus musculus, UniProt P39654).
T2 sequence (P39654 whole entry): T1 sequence (whole entry)
Described as §1. The class given is cell-free.

The species entered for series [10] is Mus musculus. The series can be described thus: Antioxidant activity in 10% C57BL/6J mouse plasma assessed as inhibition of SIN-1-derived peroxynitrite-induced lipid oxidation by DPPP-based fluorescence assay. Type of series: functional, cell-free.
Series [11] in a line: Plasma concentration in pediatric kawasaki patient at 10 to 25 mg/kg, po by HPLC method. The class given is ADME, organism-based. To be noted: human, in vivo.
A short description of series [12]: Drug level in plasma (unknown origin). Type of series: ADME, cell-free.
Series [13] in a line: Plasma concentration in human at 400 mg, po. Type of series: ADME, cell-free.
Setting [14] is: 1-octanol/water, read-out: logP.

Active and inactive are the calls of the source. The calls are words filed in the database; no cut-off is given here.

With `Cc1c(C)c2c(c(C)c1O)CC[C@@](C)(CCC[C@H](C)CCC[C@H](C)CCCC(C)C)O2`, the inhibition result in series [1] and in series [2] was “Active” throughout.

For orientation: logP means a log measure of how a compound divides between an organic and an aqueous phase. `COc1ccccc1OCCNCC(O)COc1cccc2[nH]c3ccccc3c12` (centres undefined) [CARVEDILOL] came in with a logP in [3] (octanol/water) of 1.04. For the same molecule, in [4], the inhibition result was “Dose-dependent effect”. The same molecule registered a concentration in series [5] of 0.5 µM.

For `O=c1c2ccccc2[se]n1-c1ccccc1` [EBSELEN], in [3] (setting [14]), the lipophilicity (logP) is 1.25. Besides, the concentration at 24 h in series [6] lay in the range of 5 to 20 µM. In series [4], the inhibition result is “Dose-dependent effect”.

A word on the IC50: it is the concentration that inhibits the measured activity by half. Read a low IC50 as greater potency in that assay. For `CC1=NN(c2ccccc2)C(=O)C1` [EDARAVONE], in [3] (setting [14]), the logP was 0.86. The inhibition result in series [7], in [8] and in [10] was “Dose-dependent effect” in each case. In series [9], this molecule registered a half-inhibitory concentration (IC50) of 34 µM. In series [1], the inhibition entry was “Active”.

In the case of `CC(=O)CCCCn1c(=O)c2c(ncn2C)n(C)c1=O` [PENTOXIFYLLINE], in series [3] (setting [14]), the logP turned out to be 0.19. In series [4], the inhibition entry is “Dose-dependent effect”. The concentration in series [11] was in the range of 5 to 20 µM.

As for `CC(C)(Sc1cc(C(C)(C)C)c(O)c(C(C)(C)C)c1)Sc1cc(C(C)(C)C)c(O)c(C(C)(C)C)c1` [PROBUCOL], the logP in series [3] (setting [14]) was 1.02. For the same molecule, the inhibition result in [7] and in [10] was “Dose-dependent effect” throughout. In addition, the concentration in series [12] turned out to be 30 µM. The inhibition result in series [1] was “Active”.

For the molecule `Cc1c(C)c2c(c(C)c1O)CCC(C)(COc1ccc(CC3SC(=O)NC3=O)cc1)O2` (centres undefined) [TROGLITAZONE], the log partition coefficient (logP) in [3] (octanol/water) stood at 0.95. For the same molecule, the inhibition entry in [4] and in series [8] was “Dose-dependent effect” in each case. The IC50 in [9] stood at 20 µM. The molecule also yielded a concentration in [13] of 5 to 20 µM. Further, the inhibition result in [1] and in [2] was “Active” in each case.
